Paper PMC11853379, “Glioblastoma Cell Migration, Invasion and Vasculogenic Mimicry Downmodulated by Novel uPAcyclin Derivatives” (Cells, 2025)
Read-outs that look alike come from different tables or passages of the source. Positions of bridges follow the written chain, without caps; N, C: chain ends. Residues, ends and D or L forms follow the SMILES beside them.

Assays:
U251-MG cells = type: cell-based, human
Description: The migration and invasion assays were performed with Boyden chambers, according to De Vincenzo et al., using 11 × 10^4 U87-MG and U251-MG glioblastoma cells/sample pre-treated for 40 min at 37 °C with the indicated effectors and then allowed to migrate for 3 h or to invade for 5 h at 37 °C toward 5% FBS in DMEM/0.1% BSA. The migrated or invaded cells were reported as a percentage of basal random migration or invasion and analyzed as reported in the Statistical Analyses section. The migration and invasion experiments were conducted in triplicate.
Figure 4 Binding and biological effect of selected Ala peptides on U251-MG migration and invasion. (A) A binding assay was performed using U251-MG cells, as described in the legend of Figure 1. (B) The directional migration toward 10% FBS of U251-MG cells was performed in Boyden chambers, in the presence of the indicated peptides, as described in the legend of Figure 1. (C) An invasion assay was performed toward 5% FBS of U251-MG cells in Boyden chambers, in the presence of the indicated peptides. For all migration and invasion assays, the p-values are ≤0.001, apart from [Ala^1]uPAcyclin with a p ≤ 0.05.

[1] = target: T1, αV integrin on U251-MG cells (Homo sapiens, UniProt P06756); assay: Receptor binding assay: displacement of FITC-uPAcyclin from U251-MG cells; details: competition with FITC-uPAcyclin
T1 construct: endogenous in cells; host or cells: U251-MG human glioblastoma cells (acid-treated, 4 °C)
Description: The U87-MG and U251-MG cell lines were harvested and acid-treated, as described. Briefly, 2 × 10^6 cells/sample were pre-incubated for 30 min at 4 °C with uPAcyclin and Ala peptides and subsequently exposed to 50 nM FITC-uPAcyclin for 2 h at 4 °C, as described. The experiments were performed three times, with duplicate samples, and analyzed as reported in the statistical analysis.
To rule out the possibility that the effects observed may be restricted to a single cell line, testing was extended to the U251-MG cell line, derived from a human glioblastoma with a mesenchymal-like phenotype with a lower proliferative capacity than U87-MG cells. This cell line was analyzed for the ability to specifically bind the FITC-uPAcyclin, in the presence of increasing concentrations of unlabeled [Ala^2,Ala^5]uPAcyclin, together with the parent uPAcyclin and the selected cyclopeptides [Ala^1]uPAcyclin, [Ala^4]uPAcyclin and [Ala^8]uPAcyclin (Figure 4A). In particular, [Ala^1]uPAcyclin and [Ala^8]uPAcyclin were selected for their contrasting affinity/activity observed on U87-MG glioblastoma cells, while [Ala^4]uPAcyclin was chosen to confirm the importance of Ser4 both in binding and in the anti-migratory activity of uPAcyclin.
Figure 4 Binding and biological effect of selected Ala peptides on U251-MG migration and invasion. […]

T1 sequence (P06756 31-889 limits assumed): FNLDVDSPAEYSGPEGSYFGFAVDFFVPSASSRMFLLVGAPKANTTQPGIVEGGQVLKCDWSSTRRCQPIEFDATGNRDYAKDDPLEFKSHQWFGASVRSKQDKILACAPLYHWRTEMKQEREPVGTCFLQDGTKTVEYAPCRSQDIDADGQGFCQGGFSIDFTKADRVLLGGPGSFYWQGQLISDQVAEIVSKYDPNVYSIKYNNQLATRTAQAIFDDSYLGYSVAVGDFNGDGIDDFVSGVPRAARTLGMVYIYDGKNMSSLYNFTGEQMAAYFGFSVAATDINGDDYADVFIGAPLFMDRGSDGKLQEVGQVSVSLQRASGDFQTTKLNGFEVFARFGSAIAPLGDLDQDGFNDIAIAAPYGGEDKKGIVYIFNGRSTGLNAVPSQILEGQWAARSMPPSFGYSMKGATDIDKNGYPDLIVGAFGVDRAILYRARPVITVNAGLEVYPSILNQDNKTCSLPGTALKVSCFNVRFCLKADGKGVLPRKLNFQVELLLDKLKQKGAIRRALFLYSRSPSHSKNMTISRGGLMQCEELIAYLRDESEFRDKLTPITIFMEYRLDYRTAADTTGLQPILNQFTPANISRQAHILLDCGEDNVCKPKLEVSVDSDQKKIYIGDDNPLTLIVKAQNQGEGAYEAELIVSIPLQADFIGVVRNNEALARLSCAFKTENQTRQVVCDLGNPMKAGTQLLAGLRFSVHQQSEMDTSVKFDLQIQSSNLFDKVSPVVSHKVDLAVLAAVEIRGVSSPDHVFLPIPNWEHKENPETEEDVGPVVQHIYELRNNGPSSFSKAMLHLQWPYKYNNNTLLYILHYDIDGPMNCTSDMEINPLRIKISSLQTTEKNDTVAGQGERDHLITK
T1 sequence (P06756 891-1048 limits assumed): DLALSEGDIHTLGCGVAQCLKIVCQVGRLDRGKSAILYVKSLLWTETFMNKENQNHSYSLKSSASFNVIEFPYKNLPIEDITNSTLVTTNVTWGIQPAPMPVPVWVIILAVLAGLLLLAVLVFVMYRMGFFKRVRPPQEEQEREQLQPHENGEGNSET

Compound | IC50 (U251-MG cells; 3 h) [pM] | IC50 (U251-MG cells; 5 h) [pM] | binding to U251-MG cells (in words) [1] | inhibition of invasion (in words) (U251-MG cells; U251-MG) | inhibition of migration (in words) (U251-MG cells; U251-MG)
CC(=O)N[C@@H](CCCCN)C(=O)N[C@@H](C)C(=O)N[C@H]1CCC(=O)NCCCC[C@@H](C(N)=O)NC(=O)[C@H](CC(C)C)NC(=O)[C@H](CCC(=O)O)NC(=O)[C@H](CCC(=O)O)NC(=O)[C@@H]2CCCN2C(=O)[C@H](C)NC(=O)[C@H](CO)NC1=O [[Ala^2,Ala^5]uPAcyclin] (Ac-KAESAPEELK-NH2; lactam 3-10) | < 1 | < 1 | binds with the highest affinity |  | 
CC(=O)N[C@@H](CCCCN)C(=O)N1CCC[C@H]1C(=O)N[C@H]1CCC(=O)NCCCC[C@@H](C(N)=O)NC(=O)[C@H](CC(C)C)NC(=O)[C@H](C)NC(=O)[C@H](CCC(=O)O)NC(=O)[C@@H]2CCCN2C(=O)[C@@H]2CCCN2C(=O)[C@H](CO)NC1=O [[Ala^8]uPAcyclin] (Ac-KPESPPEALK-NH2; lactam 3-10) |  |  |  | most active among the Ala variants | most active among the Ala variants
CC(=O)N[C@@H](CCCCN)C(=O)N1CCC[C@H]1C(=O)N[C@H]1CCC(=O)NCCCC[C@@H](C(N)=O)NC(=O)[C@H](CC(C)C)NC(=O)[C@H](CCC(=O)O)NC(=O)[C@H](CCC(=O)O)NC(=O)[C@@H]2CCCN2C(=O)[C@@H]2CCCN2C(=O)[C@H](CO)NC1=O [uPAcyclin] (Ac-KPESPPEELK-NH2; lactam 3-10) |  |  | dose-dependent decrease in cell-associated fluorescence |  | 
